What was measured:
[1] = biological target: acetyl-CoA carboxylase 2 (ACC2) (Homo sapiens, UniProt O00763); assay: purified ACC incubated with MK-4074, ATP, acetyl-CoA and NaH14CO3; assay type: biochemical
[2] = biological target: acetyl-CoA carboxylase 1 (ACC1) (Homo sapiens, UniProt Q13085); assay: as above; assay type: biochemical

acetyl-CoA carboxylase 2 (ACC2), sequence (O00763 whole entry): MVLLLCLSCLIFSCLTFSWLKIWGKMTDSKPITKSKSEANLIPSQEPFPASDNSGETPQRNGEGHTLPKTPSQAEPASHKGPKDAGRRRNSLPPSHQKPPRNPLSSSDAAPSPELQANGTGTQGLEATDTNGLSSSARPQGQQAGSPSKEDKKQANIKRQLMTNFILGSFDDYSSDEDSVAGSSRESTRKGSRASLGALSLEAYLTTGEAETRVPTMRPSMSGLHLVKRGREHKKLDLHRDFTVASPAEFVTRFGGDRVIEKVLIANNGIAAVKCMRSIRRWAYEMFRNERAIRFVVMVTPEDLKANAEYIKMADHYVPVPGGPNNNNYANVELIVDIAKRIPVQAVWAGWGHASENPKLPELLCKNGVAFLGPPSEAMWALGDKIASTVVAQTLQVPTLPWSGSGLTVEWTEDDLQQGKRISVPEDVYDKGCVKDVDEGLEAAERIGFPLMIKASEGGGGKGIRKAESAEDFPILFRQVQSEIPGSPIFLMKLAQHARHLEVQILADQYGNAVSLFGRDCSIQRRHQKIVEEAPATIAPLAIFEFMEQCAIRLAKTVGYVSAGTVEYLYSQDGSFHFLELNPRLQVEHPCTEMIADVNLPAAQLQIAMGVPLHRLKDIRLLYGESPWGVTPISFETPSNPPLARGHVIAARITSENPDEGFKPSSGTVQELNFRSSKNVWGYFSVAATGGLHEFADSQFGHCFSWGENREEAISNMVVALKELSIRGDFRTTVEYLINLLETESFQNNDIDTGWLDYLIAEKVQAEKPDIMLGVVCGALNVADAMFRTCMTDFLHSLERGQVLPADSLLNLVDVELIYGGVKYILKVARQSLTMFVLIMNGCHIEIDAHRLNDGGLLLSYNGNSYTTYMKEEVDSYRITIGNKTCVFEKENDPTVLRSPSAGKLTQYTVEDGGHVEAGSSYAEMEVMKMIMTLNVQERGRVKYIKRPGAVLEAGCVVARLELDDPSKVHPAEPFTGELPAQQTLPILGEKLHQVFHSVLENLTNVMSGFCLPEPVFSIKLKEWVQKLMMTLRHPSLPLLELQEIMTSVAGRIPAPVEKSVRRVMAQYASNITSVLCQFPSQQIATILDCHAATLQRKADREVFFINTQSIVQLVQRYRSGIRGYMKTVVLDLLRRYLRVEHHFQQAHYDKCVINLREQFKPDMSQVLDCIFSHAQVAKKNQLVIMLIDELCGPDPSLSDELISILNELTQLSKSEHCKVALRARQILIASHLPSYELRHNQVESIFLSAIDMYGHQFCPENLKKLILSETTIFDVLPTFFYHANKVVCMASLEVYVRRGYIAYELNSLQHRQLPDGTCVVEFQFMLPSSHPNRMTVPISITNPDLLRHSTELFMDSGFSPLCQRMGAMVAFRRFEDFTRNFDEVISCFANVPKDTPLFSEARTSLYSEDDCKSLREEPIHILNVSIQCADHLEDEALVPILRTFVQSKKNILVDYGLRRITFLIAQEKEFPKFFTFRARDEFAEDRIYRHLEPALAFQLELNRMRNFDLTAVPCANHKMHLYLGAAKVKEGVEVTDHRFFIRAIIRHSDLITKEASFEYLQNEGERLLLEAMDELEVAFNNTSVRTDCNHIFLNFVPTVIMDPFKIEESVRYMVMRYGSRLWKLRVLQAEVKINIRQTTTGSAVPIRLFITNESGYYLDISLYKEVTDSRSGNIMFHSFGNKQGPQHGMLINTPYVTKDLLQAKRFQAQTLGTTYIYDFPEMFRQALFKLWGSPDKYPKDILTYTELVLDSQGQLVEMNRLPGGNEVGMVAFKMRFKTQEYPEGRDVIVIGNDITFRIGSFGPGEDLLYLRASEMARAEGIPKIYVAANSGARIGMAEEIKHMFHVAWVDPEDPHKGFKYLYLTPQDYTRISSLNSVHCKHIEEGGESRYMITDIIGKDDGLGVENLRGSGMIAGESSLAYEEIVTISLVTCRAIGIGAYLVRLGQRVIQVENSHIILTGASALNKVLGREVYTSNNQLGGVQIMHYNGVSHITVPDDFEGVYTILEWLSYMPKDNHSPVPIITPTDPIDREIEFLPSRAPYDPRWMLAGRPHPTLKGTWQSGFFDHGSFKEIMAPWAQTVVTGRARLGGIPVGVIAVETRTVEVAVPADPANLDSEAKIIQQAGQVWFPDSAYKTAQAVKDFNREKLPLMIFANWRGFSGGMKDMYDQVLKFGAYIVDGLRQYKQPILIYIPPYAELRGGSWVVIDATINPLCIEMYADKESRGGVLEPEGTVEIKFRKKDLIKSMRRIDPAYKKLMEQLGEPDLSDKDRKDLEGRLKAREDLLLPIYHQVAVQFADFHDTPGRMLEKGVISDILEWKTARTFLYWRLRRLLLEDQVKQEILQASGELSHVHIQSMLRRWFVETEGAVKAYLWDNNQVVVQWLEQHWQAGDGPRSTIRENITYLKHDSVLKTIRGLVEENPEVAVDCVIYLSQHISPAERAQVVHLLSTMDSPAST

IC50 [1]: ~3 nM
IC50 [2]: ~3 nM
Compound: COc1cc(C(=O)N2CCC3(CC2)CC(=O)c2cc(-c4cncc(C(=O)O)c4)ccc2O3)cc2c1c(C)cn2C1CC1 [MK-4074]
